Assay results published in PubChem BioAssay AID330 (DTP/NCI, 2004).
Where “and” joins values, the source holds several entries; their conditions need not be identical. Identical values can stand only once. Toxic doses and inconclusive results are not listed.

Test system: P388 leukemia ip, CD2F1 mice, survival T/C
Assay: NCI In Vivo Anticancer Drug Screen. Data for tumor model P388 Leukemia (intraperitoneal) in CD2F1 (CDF1) mice
Details: endpoint: median survival time, higher = longer survival
Method in brief: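 Mice carrying the transplanted tumor received test compound or vehicle. Survival was recorded in each group, and the value is the treated-group measurement divided by that of the vehicle-treated control group.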

SMILES: Cc1[nH]c(=O)[nH]c(=O)c1N(CCF)CCCl
- T/C (dose: 0.5 mg/kg/injection, schedule: Q03HX024 (ip), vehicle: acid diluted with saline): 101 % of control
- T/C (dose: 1.0 mg/kg/injection, schedule: Q03HX016 (ip), vehicle: acid diluted with saline): 100 % of control
- T/C (dose: 1.0 mg/kg/injection, schedule: Q03HX024 (ip), vehicle: acid diluted with saline): 105 % of control
- T/C (dose: 1.8 mg/kg/injection, schedule: Q01DX009 (ip), vehicle: saline with Tween-80): 109 % of control
- T/C (dose: 2.0 mg/kg/injection, schedule: Q01DX009 (ip), vehicle: acid diluted with saline): 110 % of control
- T/C (dose: 2.0 mg/kg/injection, schedule: Q01DX009 (sc), vehicle: acid diluted with saline): 101 % of control
- T/C (dose: 2.0 mg/kg/injection, schedule: Q03HX008 (ip), vehicle: acid diluted with saline): 105 % of control
- T/C (dose: 2.0 mg/kg/injection, schedule: Q03HX016 (ip), vehicle: acid diluted with saline): 105 % of control
- T/C (dose: 2.0 mg/kg/injection, schedule: Q03HX024 (ip), vehicle: acid diluted with saline): 108 % of control
- T/C (dose: 2.0 mg/kg/injection, schedule: Q03HX024 (oral), vehicle: acid diluted with saline): 109 % of control
- T/C (dose: 2.0 mg/kg/injection, schedule: Q03HX024 (oral), vehicle: other): 107 % of control
- T/C (dose: 3.0 mg/kg/injection, schedule: Q01DX009 (ip), vehicle: saline with Tween-80): 109 % of control
- T/C (dose: 4.0 mg/kg/injection, schedule: Q01DX005 (ip), vehicle: Klucel (hydroxypropylcellulose) (HPC)): 121 % of control
- T/C (dose: 4.0 mg/kg/injection, schedule: Q01DX005 (iv), vehicle: Klucel (hydroxypropylcellulose) (HPC)): 102 % of control
- T/C (dose: 4.0 mg/kg/injection, schedule: Q01DX009 (ip), vehicle: acid diluted with saline): 101 % of control
- T/C (dose: 4.0 mg/kg/injection, schedule: Q01DX009 (sc), vehicle: acid diluted with saline): 103 % of control
- T/C (dose: 4.0 mg/kg/injection, schedule: Q03HX008 (ip), vehicle: acid diluted with saline): 105 % of control
- T/C (dose: 4.0 mg/kg/injection, schedule: Q03HX008 (oral), vehicle: other): 105 % of control
- T/C (dose: 4.0 mg/kg/injection, schedule: Q03HX016 (oral), vehicle: other): 100 % of control
- T/C (dose: 4.0 mg/kg/injection, schedule: Q03HX024 (ip), vehicle: acid diluted with saline): 112 % of control
- T/C (dose: 4.0 mg/kg/injection, schedule: Q03HX024 (oral), vehicle: acid diluted with saline): 100 % of control
- T/C (dose: 4.0 mg/kg/injection, schedule: Q03HX024 (oral), vehicle: other): 108 % of control
- T/C (dose: 4.0 mg/kg/injection, schedule: Q04DX003 (ip), vehicle: acid diluted with saline): 106 % of control
- T/C (dose: 5.0 mg/kg/injection, schedule: Q01DX009 (ip), vehicle: saline with Tween-80): 109 % of control
- T/C (dose: 6.25 mg/kg/injection, schedule: Q04DX003 (ip), vehicle: saline): 104 % of control
- T/C (dose: 8.0 mg/kg/injection, schedule: Q01DX001 (ip), vehicle: acid diluted with saline): 109 % of control
- T/C (dose: 8.0 mg/kg/injection, schedule: Q01DX001 (ip), vehicle: saline): 118 % of control
- T/C (dose: 8.0 mg/kg/injection, schedule: Q01DX005 (iv), vehicle: Klucel (hydroxypropylcellulose) (HPC)): 119 % of control
- T/C (dose: 8.0 mg/kg/injection, schedule: Q01DX009 (ip), vehicle: acid diluted with saline): 116 % of control
- T/C (dose: 8.0 mg/kg/injection, schedule: Q01DX009 (oral), vehicle: acid diluted with saline): 109 % of control
- T/C (dose: 8.0 mg/kg/injection, schedule: Q01DX009 (oral), vehicle: other): 115 % of control
- T/C (dose: 8.0 mg/kg/injection, schedule: Q01DX009 (sc), vehicle: acid diluted with saline): 108 % of control
- T/C (dose: 8.0 mg/kg/injection, schedule: Q03HX008 (ip), vehicle: acid diluted with saline): 103 % of control
- T/C (dose: 8.0 mg/kg/injection, schedule: Q03HX008 (oral), vehicle: acid diluted with saline): 109 % of control
- T/C (dose: 8.0 mg/kg/injection, schedule: Q03HX008 (oral), vehicle: other): 106 % of control
- T/C (dose: 8.0 mg/kg/injection, schedule: Q03HX016 (ip), vehicle: acid diluted with saline): 105 % of control
- T/C (dose: 8.0 mg/kg/injection, schedule: Q03HX016 (oral), vehicle: acid diluted with saline): 100 % of control
- T/C (dose: 8.0 mg/kg/injection, schedule: Q03HX016 (oral), vehicle: other): 106 % of control
- T/C (dose: 8.0 mg/kg/injection, schedule: Q03HX024 (oral), vehicle: acid diluted with saline): 104 % of control
- T/C (dose: 8.0 mg/kg/injection, schedule: Q03HX024 (oral), vehicle: other): 115 % of control
- T/C (dose: 8.0 mg/kg/injection, schedule: Q04DX003 (ip), vehicle: acid diluted with saline): 112 % of control
- T/C (dose: 8.0 mg/kg/injection, schedule: Q08DX002 (ip), vehicle: acid diluted with saline): 100 % of control
- T/C (dose: 12.5 mg/kg/injection, schedule: Q04DX003 (ip), vehicle: saline): 122 % of control
- T/C (dose: 16.0 mg/kg/injection, schedule: Q01DX001 (ip), vehicle: acid diluted with saline): 103 % of control and 118 % of control and 122 % of control
- T/C (dose: 16.0 mg/kg/injection, schedule: Q01DX001 (ip), vehicle: saline): 122 % of control
- T/C (dose: 16.0 mg/kg/injection, schedule: Q01DX001 (sc), vehicle: acid diluted with saline): 100 % of control
- T/C (dose: 16.0 mg/kg/injection, schedule: Q01DX005 (iv), vehicle: Klucel (hydroxypropylcellulose) (HPC)): 121 % of control
- T/C (dose: 16.0 mg/kg/injection, schedule: Q01DX009 (ip), vehicle: acid diluted with saline): 150 % of control
- T/C (dose: 16.0 mg/kg/injection, schedule: Q01DX009 (oral), vehicle: acid diluted with saline): 113 % of control
- T/C (dose: 16.0 mg/kg/injection, schedule: Q01DX009 (oral), vehicle: other): 115 % of control
- T/C (dose: 16.0 mg/kg/injection, schedule: Q01DX009 (sc), vehicle: acid diluted with saline): 123 % of control
- T/C (dose: 16.0 mg/kg/injection, schedule: Q03HX008 (ip), vehicle: acid diluted with saline): 106 % of control
- T/C (dose: 16.0 mg/kg/injection, schedule: Q03HX008 (oral), vehicle: acid diluted with saline): 109 % of control
- T/C (dose: 16.0 mg/kg/injection, schedule: Q03HX008 (oral), vehicle: other): 106 % of control
- T/C (dose: 16.0 mg/kg/injection, schedule: Q03HX016 (ip), vehicle: acid diluted with saline): 105 % of control
- T/C (dose: 16.0 mg/kg/injection, schedule: Q03HX016 (oral), vehicle: acid diluted with saline): 109 % of control
- T/C (dose: 16.0 mg/kg/injection, schedule: Q03HX024 (oral), vehicle: acid diluted with saline): 109 % of control
- T/C (dose: 16.0 mg/kg/injection, schedule: Q03HX024 (oral), vehicle: other): 100 % of control
- T/C (dose: 16.0 mg/kg/injection, schedule: Q04DX003 (ip), vehicle: acid diluted with saline): 108 % of control
- T/C (dose: 16.0 mg/kg/injection, schedule: Q04DX003 (oral), vehicle: acid diluted with saline): 113 % of control
- T/C (dose: 16.0 mg/kg/injection, schedule: Q04DX003 (oral), vehicle: other): 111 % of control
- T/C (dose: 16.0 mg/kg/injection, schedule: Q08DX002 (ip), vehicle: acid diluted with saline): 101 % of control
- T/C (dose: 23.0 mg/kg/injection, schedule: Q01DX009 (ip), vehicle: saline with Tween-80): 150 % of control
- T/C (dose: 25.0 mg/kg/injection, schedule: Q04DX003 (ip), vehicle: saline): 163 % of control
- T/C (dose: 32.0 mg/kg/injection, schedule: Q01DX001 (ip), vehicle: acid diluted with saline): 103 % of control
- T/C (dose: 32.0 mg/kg/injection, schedule: Q01DX001 (ip), vehicle: saline): 154 % of control
- T/C (dose: 32.0 mg/kg/injection, schedule: Q01DX001 (oral), vehicle: other): 106 % of control
- T/C (dose: 32.0 mg/kg/injection, schedule: Q01DX001 (sc), vehicle: acid diluted with saline): 99 % of control
- T/C (dose: 32.0 mg/kg/injection, schedule: Q01DX009 (ip), vehicle: acid diluted with saline): 158 % of control
- T/C (dose: 32.0 mg/kg/injection, schedule: Q01DX009 (oral), vehicle: acid diluted with saline): 118 % of control
- T/C (dose: 32.0 mg/kg/injection, schedule: Q03HX008 (ip), vehicle: acid diluted with saline): 107 % of control
- T/C (dose: 32.0 mg/kg/injection, schedule: Q03HX016 (oral), vehicle: acid diluted with saline): 109 % of control
- T/C (dose: 32.0 mg/kg/injection, schedule: Q04DX003 (ip), vehicle: acid diluted with saline): 123 % of control
- T/C (dose: 32.0 mg/kg/injection, schedule: Q04DX003 (oral), vehicle: acid diluted with saline): 109 % of control
- T/C (dose: 32.0 mg/kg/injection, schedule: Q04DX003 (oral), vehicle: other): 108 % of control
- T/C (dose: 32.0 mg/kg/injection, schedule: Q08DX002 (ip), vehicle: acid diluted with saline): 101 % of control
- T/C (dose: 32.0 mg/kg/injection, schedule: Q08DX002 (oral), vehicle: other): 114 % of control
- T/C (dose: 64.0 mg/kg/injection, schedule: Q01DX001 (ip), vehicle: saline): 159 % of control
- T/C (dose: 64.0 mg/kg/injection, schedule: Q01DX001 (oral), vehicle: acid diluted with saline): 109 % of control
- T/C (dose: 64.0 mg/kg/injection, schedule: Q01DX001 (oral), vehicle: other): 108 % of control
- T/C (dose: 64.0 mg/kg/injection, schedule: Q01DX001 (sc), vehicle: acid diluted with saline): 100 % of control
- T/C (dose: 64.0 mg/kg/injection, schedule: Q04DX003 (oral), vehicle: acid diluted with saline): 109 % of control
- T/C (dose: 64.0 mg/kg/injection, schedule: Q04DX003 (oral), vehicle: other): 124 % of control
- T/C (dose: 64.0 mg/kg/injection, schedule: Q08DX002 (oral), vehicle: acid diluted with saline): 109 % of control
- T/C (dose: 64.0 mg/kg/injection, schedule: Q08DX002 (oral), vehicle: other): 115 % of control
- T/C (dose: 128.0 mg/kg/injection, schedule: Q01DX001 (oral), vehicle: acid diluted with saline): 109 % of control
- T/C (dose: 128.0 mg/kg/injection, schedule: Q01DX001 (sc), vehicle: acid diluted with saline): 99 % of control
- T/C (dose: 128.0 mg/kg/injection, schedule: Q01DX009 (oral), vehicle: acid diluted with saline): 118 % of control
- T/C (dose: 128.0 mg/kg/injection, schedule: Q08DX002 (oral), vehicle: acid diluted with saline): 100 % of control
- T/C (dose: 256.0 mg/kg/injection, schedule: Q01DX001 (oral), vehicle: acid diluted with saline): 109 % of control
- T/C (dose: 256.0 mg/kg/injection, schedule: Q01DX001 (sc), vehicle: acid diluted with saline): 100 % of control
- T/C (dose: 256.0 mg/kg/injection, schedule: Q04DX003 (oral), vehicle: acid diluted with saline): 118 % of control
- T/C (dose: 256.0 mg/kg/injection, schedule: Q08DX002 (oral), vehicle: acid diluted with saline): 104 % of control
- T/C (dose: 512.0 mg/kg/injection, schedule: Q01DX001 (oral), vehicle: acid diluted with saline): 113 % of control
- T/C (dose: 512.0 mg/kg/injection, schedule: Q08DX002 (oral), vehicle: acid diluted with saline): 109 % of control
